Measurements from US20250011307A1, “CRYSTALLINE FORMS OF BIARYL YAP/TAZ-TEAD PROTEIN-PROTEIN INTERACTION INHIBITORS” (Novartis AG, priority 2021, published 2025).

How the values were obtained:
Format in all cases: physicochemical
[1] = Solid state bulk stability stress test (HPLC degradation products, color, XRPD); parameters: key to CL color: A: No change; B: Slight discoloration; C: Medium discoloration; D: Strong discoloration; settings: Compound A forms
[2] = Xenon light stress test of bulk (HPLC degradation products, color, XRPD); parameters: key to CL color: A: No change; B: Slight discoloration; C: Medium discoloration; D: Strong discoloration; settings: Compound A forms, Xenon light (1200 kLuxh, 25° C.)
Procedure: (§1) X-ray powder diffraction (XRPD) patterns were obtained using a Bruker Advance D8 in reflection geometry. Powders were analyzed using a zero background Si flat sample holder. The radiation used was Cu Kα (A=1.5418 Å). Patterns were measured between 2° and 40° 2theta. • Sample amount: 5-10 mg • Sample holder: zero background Si flat sample holder
as §1, with “radiation” for “radiation used”, “(λ=1.5418” for “(A=1.5418”

[3] = Excipient compatibility stress test (HPLC degradation products, color); parameters: key to CL color: A: No change; B: Slight discoloration; C: Medium discoloration; D: Strong discoloration; settings: Compound A forms
[4] = Solubility after equilibration at 25° C. for 24 h, with final pH and XRPD of solid residues; settings: Compound A forms
[5] = Hygroscopicity (loss on drying by TGA and XRPD, as is and after storage at 92% / 80% RH); settings: Compound A forms; for Loss on drying by TGA [%]: TGA temperature per cell: Modification A 110° C., amorphous 119° C., 4-hydroxybenzoate 200° C.
[6] = 2 weeks 50° C./75% RH, 1% in mixture 1
[7] = 2 weeks 50° C./75% RH, 1% in mixture 2
[8] = 2 weeks 50° C./75% RH, 1% in mixture 3
[9] = 2 weeks 50° C./75% RH, HGC capsule powder
[10] = 2 weeks 50° C./75% RH, HPMC capsule powder
[11] = 2 weeks 70° C./11% RH, 1% in mixture 1
[12] = 2 weeks 70° C./11% RH, 1% in mixture 2
[13] = 2 weeks 70° C./11% RH, 1% in mixture 3
[14] = 2 weeks 70° C./11% RH, HGC capsule powder
[15] = 2 weeks 70° C./11% RH, HPMC capsule powder
[16] = 2 weeks 70° C./75% RH, 1% in mixture 1
[17] = 2 weeks 70° C./75% RH, 1% in mixture 2
[18] = 2 weeks 70° C./75% RH, 1% in mixture 3
[19] = 2 weeks 70° C./75% RH, HPC capsule powder
[20] = 2 weeks 70° C./75% RH, HPMC capsule powder
[21] = FaSSIF V2 pH 6.5, target concentration 20 mg/10 mL
[22] = FeSSIF V2 pH 5.8, target concentration 20 mg/10 mL
[23] = SGF pH 2.0, target concentration 20 mg/10 mL
[24] = Water, target concentration 20 mg/10 mL
[25] = pH 1.2, 100 mM HCl, target concentration 20 mg/10 mL
[26] = pH 3.0, 50 mM citrate buffer, target concentration 20 mg/10 mL
[27] = pH 4.7, 50 mM acetate buffer, target concentration 20 mg/10 mL
[28] = pH 6.8, 50 mM phosphate buffer with 50 mM Na taurocholate
[29] = pH 6.8, 50 mM phosphate buffer with 50 mM Na taurocholate, target concentration 20 mg/10 mL
[30] = pH 6.8, 50 mM phosphate buffer, target concentration 20 mg/10 mL
[31] = Hygroscopicity, before RH storage

Structure (SMILES): CNC(=O)c1cnc(OCCO)c(F)c1-c1c(Cl)c(F)cc2c1C[C@](c1ccccc1)([C@@H]1CCCN1)O2 [Compound A 4-hydroxybenzoate, 4-((2S,4S)-5-Chloro-6-fluoro-2-phenyl-2-((S)-pyrrolidin-2-yl)-2,3-dihydrobenzofuran-4-yl)-5-fluoro-6-(2-hydroxyethoxy)-N-methylnicotinamide]
- Bulk (XRPD) ([1]; 2 weeks 50° C./75% RH): No change
- CL color ([1]; 2 weeks 50° C./75% RH): A
- DP[%] degradation products, Bulk (HPLC) ([1]; 2 weeks 50° C./75% RH): 0.2%
- Bulk (XRPD) ([1]; 2 weeks 80° C., 11% RH): No change
- CL color ([1]; 2 weeks 80° C., 11% RH): A
- DP[%] degradation products, Bulk (HPLC) ([1]; 2 weeks 80° C., 11% RH): 0.2%
- Bulk (XRPD) ([1]; 2 weeks 80° C./75% RH): No change
- CL color ([1]; 2 weeks 80° C./75% RH): A
- DP[%] degradation products, Bulk (HPLC) ([1]; 2 weeks 80° C./75% RH): 1.5%
- Bulk amber vial (XRPD) ([2]; amber vial): No change
- CL color ([2]; amber vial): A
- DP[%] degradation products, Bulk amber vial (HPLC) ([2]; amber vial): 0.2%
- Bulk clear vial (XPRD) ([2]; clear vial): No change
- CL color ([2]; clear vial): A
- DP[%] degradation products, Bulk clear vial (HPLC) ([2]; clear vial): 0.2%
- CL color [3, 6]: A
- DP[%] degradation products [3, 6]: 0.3%
- CL color [3, 7]: A
- DP[%] degradation products [3, 7]: 0.2%
- CL color [3, 8]: A
- DP[%] degradation products [3, 8]: 0.2%
- CL color [3, 9]: A
- DP[%] degradation products [3, 9]: 0.3%
- CL color [3, 10]: A
- DP[%] degradation products [3, 10]: 0.6%
- CL color [3, 11]: A
- DP[%] degradation products [3, 11]: 0.4%
- CL color [3, 12]: A
- DP[%] degradation products [3, 12]: 0.1%
- CL color [3, 13]: A
- DP[%] degradation products [3, 13]: 0.2%
- CL color [3, 14]: A
- DP[%] degradation products [3, 14]: 0.3%
- CL color [3, 15]: A
- DP[%] degradation products [3, 15]: 0.6%
- CL color [3, 16]: A
- DP[%] degradation products [3, 16]: 3.6%
- CL color [3, 17]: A
- DP[%] degradation products [3, 17]: 2.3%
- CL color [3, 18]: A
- DP[%] degradation products [3, 18]: 1.5%
- CL color [3, 19]: A
- DP[%] degradation products [3, 19]: 1.3%
- CL color [3, 20]: A
- DP[%] degradation products [3, 20]: 3.1%
- final pH ([4]; FaSSIF V2 pH 6.5): (6.55)
- Sol. (solubility) [4, 21]: >2, mg/mL
- final pH ([4]; FeSSIF V2 pH 5.8): (5.86)
- Sol. (solubility) [4, 22]: >2, mg/mL
- final pH ([4]; SGF pH 2.0): (2.36)
- Sol. (solubility) [4, 23]: >2, mg/mL
- final pH ([4]; Water): (7.66)
- Sol. (solubility) [4, 24]: >2, mg/mL
- final pH ([4]; pH 1.2, 100 mM HCl): (1.18)
- Sol. (solubility) [4, 25]: >2, mg/mL
- final pH ([4]; pH 3.0, 50 mM citrate buffer): (3.12)
- Sol. (solubility) [4, 26]: >2, mg/mL
- final pH ([4]; pH 4.7, 50 mM acetate buffer): (4.78)
- Sol. (solubility) [4, 27]: >2, mg/mL
- final pH ([4]; pH 6.8, 50 mM phosphate buffer): (6.75)
- final pH [4, 28]: (6.72)
- Sol. (solubility) [4, 29]: >2, mg/mL
- Sol. (solubility) [4, 30]: >2, mg/mL
- XRPD ([5]; After 1 day at 80% RH): No change
- Loss on drying by TGA [%] ([5]; After 1 day at 80% RH): 0.6% (200° C.)
- XRPD ([5]; After 1 day at 92% RH): No change
- Loss on drying by TGA [%] ([5]; After 1 day at 92% RH): 0.7% (200° C.)
- Loss on drying by TGA [%] [5, 31]: 0.5% (200° C.)

Structure (SMILES): CNC(=O)c1cnc(OCCO)c(F)c1-c1c(Cl)c(F)cc2c1C[C@](c1ccccc1)([C@@H]1CCCN1)O2 [Compound A Free form Modification A, 4-((2S,4S)-5-Chloro-6-fluoro-2-phenyl-2-((S)-pyrrolidin-2-yl)-2,3-dihydrobenzofuran-4-yl)-5-fluoro-6-(2-hydroxyethoxy)-N-methylnicotinamide]
- Bulk (XRPD) ([1]; 2 weeks 50° C./75% RH): No change
- CL color ([1]; 2 weeks 50° C./75% RH): A
- DP[%] degradation products, Bulk (HPLC) ([1]; 2 weeks 50° C./75% RH): 1.3%
- Bulk (XRPD) ([1]; 2 weeks 80° C., 11% RH): No change
- CL color ([1]; 2 weeks 80° C., 11% RH): A
- DP[%] degradation products, Bulk (HPLC) ([1]; 2 weeks 80° C., 11% RH): 1.4%
- Bulk (XRPD) ([1]; 2 weeks 80° C./75% RH): gel
- DP[%] degradation products, Bulk (HPLC) ([1]; 2 weeks 80° C./75% RH): 12.6%
- Bulk amber vial (XRPD) ([2]; amber vial): No change
- CL color ([2]; amber vial): A
- DP[%] degradation products, Bulk amber vial (HPLC) ([2]; amber vial): 1.0%
- Bulk clear vial (XPRD) ([2]; clear vial): No change
- CL color ([2]; clear vial): B
- DP[%] degradation products, Bulk clear vial (HPLC) ([2]; clear vial): 4.1%
- CL color [3, 6]: A
- DP[%] degradation products [3, 6]: 1.4%
- CL color [3, 7]: A
- DP[%] degradation products [3, 7]: 2.5%
- CL color [3, 8]: A
- DP[%] degradation products [3, 8]: 1.4%
- CL color [3, 9]: A
- DP[%] degradation products [3, 9]: 1.2%
- CL color [3, 10]: A
- DP[%] degradation products [3, 10]: 1.7%
- CL color [3, 11]: A
- DP[%] degradation products [3, 11]: 1.3%
- CL color [3, 12]: A
- DP[%] degradation products [3, 12]: 1.2%
- CL color [3, 13]: A
- DP[%] degradation products [3, 13]: 1.1%
- CL color [3, 14]: A
- DP[%] degradation products [3, 14]: 1.2%
- CL color [3, 15]: A
- DP[%] degradation products [3, 15]: 1.5%
- CL color [3, 16]: gel
- DP[%] degradation products [3, 16]: 6.1%
- CL color [3, 17]: gel
- DP[%] degradation products [3, 17]: 7.8%
- CL color [3, 18]: gel
- DP[%] degradation products [3, 18]: 11.8%
- CL color [3, 19]: gel
- DP[%] degradation products [3, 19]: 3.3%
- CL color [3, 20]: gel
- DP[%] degradation products [3, 20]: 6.6%
- final pH ([4]; FaSSIF V2 pH 6.5): (8.07)
- Sol. (solubility) [4, 21]: ~2, mg/mL
- final pH ([4]; FeSSIF V2 pH 5.8): (5.98)
- Sol. (solubility) [4, 22]: >2, mg/mL
- final pH ([4]; SGF pH 2.0): (2.39)
- Sol. (solubility) [4, 23]: >2, mg/mL
- final pH ([4]; Water): (9.12)
- Sol. (solubility) [4, 24]: 0.27, mg/mL
- final pH ([4]; pH 1.2, 100 mM HCl): (1.16)
- Sol. (solubility) [4, 25]: >2, mg/mL
- final pH ([4]; pH 3.0, 50 mM citrate buffer): (3.10)
- Sol. (solubility) [4, 26]: >2, mg/mL
- final pH ([4]; pH 4.7, 50 mM acetate buffer): (4.86)
- Sol. (solubility) [4, 27]: >2, mg/mL
- final pH ([4]; pH 6.8, 50 mM phosphate buffer): (6.95)
- final pH [4, 28]: (6.91)
- Sol. (solubility) [4, 29]: >2, mg/mL
- Sol. (solubility) [4, 30]: >2, mg/mL
- XRPD ([5]; After 1 day at 80% RH): No change
- Loss on drying by TGA [%] ([5]; After 1 day at 80% RH): 0.7% (110° C.)
- XRPD ([5]; After 1 day at 92% RH): No change
- Loss on drying by TGA [%] ([5]; After 1 day at 92% RH): 1.0% (110° C.)
- Loss on drying by TGA [%] [5, 31]: 0.4% (110° C.)
